The test system of one assay is Hela cancer cell line. Description: Cell inhibition assay (SRB cell viability), Hela. Type of assay: cell-based. As to conditions: 72 h, Hela cells, IC50 range. The procedure:
(§1) The corresponding cancer cell lines (Hela, U937 and HUT) growing in log phase were harvested and seeded at 1000 cells/well (200 ul final volume) into 96-well tissue culture plates. Following 24 h of cell growth cells were treated with compounds (final concentration of 20 uM). Plates were then re-incubated for a further 72 h before a sulphorhodamine B (SRB) cell viability assay was conducted according to Skehan 1990 J Natl Canc Inst 82, 1107-1112.
(§2) Data were expressed as a percentage inhibition of the control, measured in the absence of inhibitor, as follows:— % inhibition=100−((S^i/S^o)×100) where S^i is the signal in the presence of inhibitor and S^o is the signal in the presence of DMSO. IC50 values were determined by non-linear regression analysis, after fitting the results of eight data points to the equation for sigmoidal dose response with variable slope (% activity against log concentration of compound), using Graphpad Prism software. […] NT=Not tested

Assay [1] addresses T1, histone deacetylase activity (HeLa nuclear extract).
T1 construct: Histone deacetylase activity from crude nuclear extract derived from HeLa cells was used for screening
The experiment in a line: HDAC fluorescent activity assay (Biomol Fluor de Lys), HeLa nuclear extract. Type of assay: biochemical. The note with it: Fluor de Lys substrate, IC50 range. The procedure:
The ability of compounds to inhibit histone deacetylase activities was measured using the commercially available HDAC fluorescent activity assay from Biomol. In brief, the Fluor de Lys™ substrate, a lysine with an epsilon-amino acetylation, is incubated with the source of histone deacetylase activity (HeLa nuclear extract) in the presence or absence of inhibitor. Deacetylation of the substrate sensitises the substrate to Fluor de Lys™ developer, which generates a fluorophore. Thus, incubation of the substrate with a source of HDAC activity results in an increase in signal that is diminished in the presence of an HDAC inhibitor.
Data are expressed as a percentage of the control, measured in the absence of inhibitor, with background signal being subtracted from all samples, as follows:— % activity=((S^i−B)/(S^o−B))×100 where S^i is the signal in the presence of substrate, enzyme and inhibitor, S^o is the signal in the presence of substrate, enzyme and the vehicle in which the inhibitor is dissolved, and B is the background signal measured in the absence of enzyme.
IC50 values were determined by non-linear regression analysis, after fitting the results of eight data points to the equation for sigmoidal dose response with variable slope (% activity against log concentration of compound), using Graphpad Prism software.
Histone deacetylase activity from crude nuclear extract derived from HeLa cells was used for screening. The preparation, purchased from 4C (Seneffe, Belgium), was prepared from HeLa cells harvested whilst in exponential growth phase. The nuclear extract is prepared according to Dignam JD1983 Nucl. Acid. Res. 11, 1475-1489, snap frozen in liquid nitrogen and stored at −80° C. The final buffer composition was 20 mM Hepes, 100 mM KCl, 0.2 mM EDTA, 0.5 mM DTT, 0.2 mM PMSF and 20% (v/v) glycerol.

In the next assay the test system is U937 cancer cell line. The experiment in a line: Cell inhibition assay (SRB cell viability), U937. As to conditions: Homo sapiens, U-937, U937 cells, 72 h, IC50 range. Type of assay: cell-based. The procedure: as §1, §2
The next assay concerns HUT cancer cell line. Description: Cell inhibition assay (SRB cell viability), HUT. Type of assay: cell-based. The note with it: HUT cells, 72 h, IC50 range. The procedure:
as §1, §2

Regarding `O=C(CCCCCCC(=O)N1Cc2[nH]c3ccccc3c2C[C@@H]1C(=O)N[C@H](C(=O)OC1CCCC1)c1ccccc1)NO` [Compound 1, (S)-{[(R)-2-(7-Hydroxycarbamoyl-heptanoyl)-2,3,4,9-tetrahydro-1H-beta-carboline-3-carbonyl]-amino}-phenyl-acetic acid cyclopentyl ester], the IC50 (usually the midpoint of a concentration-inhibition curve) with Hela cancer cell line (Homo sapiens, HeLa) is over 3.3 µM; in assay [1] it was 0.101 to 1 µM; in the assay on U937 cancer cell line, 0.33 to 3.3 µM; with HUT cancer cell line, 0.33 to 3.3 µM.

Regarding `O=C(CCCCCCC(=O)N1Cc2[nH]c3ccccc3c2C[C@H]1C(=O)N[C@H](C(=O)OC1CCCC1)c1ccccc1)NO` [Compound 3, (S)-{[(S)-2-(7-Hydroxycarbamoyl-heptanoyl)-2,3,4,9-tetrahydro-1H-beta-carboline-3-carbonyl]-amino}-phenyl-acetic acid cyclopentyl ester], the IC50 with Hela cancer cell line (Homo sapiens, HeLa) was over 3.3 µM; in assay [1] it was over 1 µM; in the assay on U937 cancer cell line, 0.33 to 3.3 µM; in the assay with HUT cancer cell line, over 3.3 µM.

As to `O=C(CCCCCCC(=O)N1Cc2[nH]c3ccccc3c2C[C@H]1C(=O)N[C@H](C(=O)O)c1ccccc1)NO` [Compound 4, (S)-{[(S)-2-(7-Hydroxycarbamoyl-heptanoyl)-2,3,4,9-tetrahydro-1H-beta-carboline-3-carbonyl]-amino}-phenyl-acetic acid], the IC50 in the assay with Hela cancer cell line (Homo sapiens, HeLa) is over 3.3 µM; in assay [1] it was 0.101 to 1 µM; in the assay with U937 cancer cell line it was over 3.3 µM; in the assay with HUT cancer cell line, over 3.3 µM.

As to `CCOC(=O)[C@H](Cc1ccccc1)NC(=O)[C@H]1Cc2c([nH]c3ccccc23)CN1C(=O)CCCCCCC(=O)NO` [Compound 5, (S)-2-{[(R)-2-(7-Hydroxycarbamoyl-heptanoyl)-2,3,4,9-tetrahydro-1H-beta-carboline-3-carbonyl]-amino}-3-phenyl-propionic acid ethyl ester], the IC50 is 0.33 to 3.3 µM with Hela cancer cell line (Homo sapiens, HeLa); 0.101 to 1 µM in assay [1]; 0.33 to 3.3 µM with U937 cancer cell line; 0.33 to 3.3 µM in the assay on HUT cancer cell line.

For the molecule `O=C(CCCCCCC(=O)N1Cc2[nH]c3ccccc3c2C[C@@H]1C(=O)N[C@@H](Cc1ccccc1)C(=O)O)NO` [Compound 6, (S)-2-{[(R)-2-(7-Hydroxycarbamoyl-heptanoyl)-2,3,4,9-tetrahydro-1H-beta-carboline-3-carbonyl]-amino}-3-phenyl-propionic acid], the IC50 is over 3.3 µM with Hela cancer cell line (Homo sapiens, HeLa); under 0.1 µM in assay [1]; over 3.3 µM in the assay on U937 cancer cell line; over 3.3 µM in the assay on HUT cancer cell line.

With `CCOC(=O)[C@H](Cc1ccccc1)NC(=O)[C@@H]1Cc2c([nH]c3ccccc23)CN1C(=O)CCCCCCC(=O)NO` [Compound 7, (S)-2-{[(S)-2-(7-Hydroxycarbamoyl-heptanoyl)-2,3,4,9-tetrahydro-1H-beta-carboline-3-carbonyl]-amino}-3-phenyl-propionic acid ethyl ester], the IC50 in the assay with Hela cancer cell line (Homo sapiens, HeLa) is over 3.3 µM; in assay [1], 0.101 to 1 µM; in the assay with U937 cancer cell line it was 0.33 to 3.3 µM; in the assay with HUT cancer cell line it was 0.33 to 3.3 µM.

With `O=C(CCCCCCC(=O)N1Cc2[nH]c3ccccc3c2C[C@H]1C(=O)N[C@@H](Cc1ccccc1)C(=O)O)NO` [Compound 8, (S)-2-{[(S)-2-(7-Hydroxycarbamoyl-heptanoyl)-2,3,4,9-tetrahydro-1H-beta-carboline-3-carbonyl]-amino}-3-phenyl-propionic acid], the IC50 with Hela cancer cell line (Homo sapiens, HeLa) was over 3.3 µM; in assay [1], 0.101 to 1 µM; with U937 cancer cell line, over 3.3 µM; in the assay with HUT cancer cell line, over 3.3 µM.

In the case of `O=C(CCCCCCC(=O)N1CCc2c([nH]c3ccccc23)C1C(=O)NC(C(=O)OC1CCCC1)c1ccccc1)NO` [Compound 9, (S)-{[2-(7-Hydroxycarbarnoyl-heptanoyl)-2,3,4,9-tetrahydro-1H-beta-carboline-1-carbonyl]-amino}-phenyl-acetic acid cyclopentyl ester], the IC50 in the assay with Hela cancer cell line (Homo sapiens, HeLa) fell in the range of 0.33 to 3.3 µM; in assay [1], 0.101 to 1 µM; with U937 cancer cell line, 0.33 to 3.3 µM; with HUT cancer cell line it was 0.33 to 3.3 µM.

Turning to `O=C(CCCCCCC(=O)N1CCc2c([nH]c3ccccc23)C1C(=O)N[C@H](C(=O)O)c1ccccc1)NO` (stereo partly drawn) [Compound 10, (S)-{[2-(7-Hydroxycarbamoyl-heptanoyl)-2,3,4,9-tetrahydro-1H-beta-carboline-1-carbonyl]amino}-phenyl-acetic acid], the IC50 in the assay on Hela cancer cell line (Homo sapiens, HeLa) is over 3.3 µM; in assay [1] it was under 0.1 µM; in the assay with U937 cancer cell line, over 3.3 µM; with HUT cancer cell line, over 3.3 µM.

On to `COc1ccc2[nH]c3c(c2c1)CCN(C(=O)CCCCCCC(=O)NO)C3C(=O)N[C@H](C(=O)OC1CCCC1)c1ccccc1` (stereo partly drawn) [Compound 11, (S)-{[2-(7-Hydroxycarbamoyl-heptanoyl)-6-methoxy-2,3,4,9-tetrahydro-1H-beta-carboline-1-carbonyl]-amino}-phenyl-acetic acid cyclopentyl ester], for which the IC50 with Hela cancer cell line is 0.33 to 3.3 µM; in assay [1] it was 0.101 to 1 µM; with U937 cancer cell line, 0.33 to 3.3 µM; in the assay with HUT cancer cell line, 0.33 to 3.3 µM.

On to `CC(C)C[C@H](NCc1cccc(NC(=O)CCCCCCC(=O)NO)c1)C(=O)OC1CCCC1` [Compound 39, (S)-2-[3-(7-Hydroxycarbamoyl-heptanoylamino)-benzylamino]-4-methyl-pentanoic acid cyclopentyl ester], for which the IC50 is 0.101 to 1 µM in assay [1], under 0.33 µM in the assay with U937 cancer cell line and 0.33 to 3.3 µM with HUT cancer cell line.

Regarding `O=C(CCCCCCC(=O)N1CCc2c([nH]c3ccccc23)C1C(=O)N[C@@H](Cc1ccccc1)C(=O)OC1CCCC1)NO` (stereo partly drawn) [Compound 64, (S)-2-{[2-(7-Hydroxycarbamoyl-heptanoyl)-2,3,4,9-tetrahydro-1H-beta-carboline-1-carbonyl]-amino}-3-phenyl-propionic acid cyclopentyl ester], the IC50 in the assay on Hela cancer cell line (Homo sapiens, HeLa) lay within 0.33 to 3.3 µM; in assay [1], 0.101 to 1 µM; with HUT cancer cell line it was 0.33 to 3.3 µM.

For `O=C(CCCCCNC(=O)c1cccc(CN[C@H](C(=O)OC2CCCC2)c2ccccc2)c1)NO` [Compound 69, (S)-[3-(5-Hydroxycarbamoyl-pentylcarbamoyl)-benzylamino]-phenyl-acetic acid cyclopentyl ester], the IC50 lay within 0.33 to 3.3 µM in the assay with Hela cancer cell line (Homo sapiens, HeLa); 0.101 to 1 µM in assay [1]; 0.33 to 3.3 µM with HUT cancer cell line.

Turning to `O=C(CCCCCCC(=O)Nc1cccc(CNC(=O)N[C@H](C(=O)OC2CCCC2)c2ccccc2)c1)NO` [Compound 79, (S)-{3-[3-(7-Hydroxycarbamoyl-heptanoylamino)-benzyl]-ureido}-phenyl-acetic acid cyclopentyl ester], the results for the IC50 (in assay [1]; with U937 cancer cell line; in the assay with HUT cancer cell line) were under 0.1 µM, over 3.3 µM and over 3.3 µM, respectively.

On to `O=C(CCCCCCC(=O)Nc1cccc(COC(=O)N[C@@H](Cc2ccccc2)C(=O)OC2CCCC2)c1)NO` [Compound 94, (S)-2-[3-(7-Hydroxycarbamoyl-heptanoylamino)-benzyloxycarbonylamino]-3-phenyl-propionic acid cyclopentyl ester], for which the IC50 was in the range of 0.101 to 1 µM in assay [1], 0.33 to 3.3 µM in the assay on U937 cancer cell line and 0.33 to 3.3 µM with HUT cancer cell line.

Consider `O=C(CNCc1ccc(CNCc2ccc3cc(C(=O)NO)sc3c2)cc1)OC1CCCC1` [Compound 120, (4-{[(2-Hydroxycarbamoyl-benzo[b]thiophen-6-ylmethyl)-amino]-methyl}-benzylamino)-acetic acid cyclopentyl ester], for which the IC50 in assay [1] is under 0.1 µM; with U937 cancer cell line it was under 0.33 µM; in the assay with HUT cancer cell line, under 0.33 µM.

With `O=C(NO)c1cc2ccc(CNCC3CCC(CN[C@H](C(=O)OC4CCCC4)c4ccccc4)CC3)cc2s1` (stereo partly drawn) [Compound 126, (S)-[(4-{[(2-Hydroxycarbamoyl-benzo[b]thiophen-6-ylmethyl)-amino]-methyl}-cyclohexylmethyl)-amino]phenyl-acetic acid cyclopentyl ester], the values for the IC50 (in assay [1]; in the assay on U937 cancer cell line; with HUT cancer cell line) were 0.101 to 1 µM, under 0.33 µM and over 3.3 µM, respectively.

As to `CC(C)(C)OC[C@H](NCc1ccc(NCc2ccc3cc(C(=O)NO)sc3c2)cc1)C(=O)OC1CCCC1` [Compound 134, (S)-3-tert-Butoxy-2-{4-[(2-hydroxycarbamoyl-benzo[b]thiophen-6-ylmethyl)-amino]-benzylamino}-propionic acid cyclopentyl ester], the values for the IC50 (in assay [1]; in the assay on U937 cancer cell line; in the assay on HUT cancer cell line) were 0.101 to 1 µM, 0.33 to 3.3 µM and over 3.3 µM, respectively.
